# Source: PubChem BioAssay (NCI)
#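 48-hour exposure; five concentrations; linearly interpolated endpoints. Definition used: TGI = concentration required for complete inhibition of growth.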
# Assays:
# Assay in all cases: NCI-60 cell line screen, 48 h
# [1] = system: SNB-19 CNS
# [2] = system: HT29 colon
# [3] = system: HS 578T breast
# [4] = system: UO-31 renal
# [5] = system: HCT-116 colon
# [6] = system: SNB-75 CNS
# [7] = system: LOX IMVI melanoma
# [8] = system: LXFL 529 NSCLC
# [9] = system: MOLT-4 leukemia
# [10] = system: SK-MEL-5 melanoma
# [11] = system: MCF7 breast
# [12] = system: KM20L2 colon
# [13] = system: SNB-78 CNS
# [14] = system: MDA-MB-231 breast
# [15] = system: M19-MEL melanoma
# [16] = system: RPMI-8226 leukemia
# [17] = system: SK-MEL-28 melanoma
# [18] = system: MALME-3M melanoma
# [19] = system: SN12C renal
# [20] = system: DU-145 prostate
# [21] = system: K-562 leukemia
# [22] = system: RXF 393 renal
# [23] = system: DMS 273 small cell lung
# [24] = system: SF-539 CNS
# [25] = system: CCRF-CEM leukemia
# [26] = system: OVCAR-3 ovarian
# [27] = system: HOP-92 NSCLC
# [28] = system: SK-MEL-2 melanoma
# [29] = system: PC-3 prostate
# [30] = system: A549 NSCLC
# [31] = system: IGROV1 ovarian
# [32] = system: HCC-2998 colon
# [33] = system: TK-10 renal
# [34] = system: NCI-H460 lung
# [35] = system: DLD-1 colon
# [36] = system: NCI-H23 lung
# [37] = system: SR leukemia
# [38] = system: 786-0 renal
# [39] = system: SK-OV-3 ovarian
# [40] = system: SW-620 colon
# [41] = system: HOP-62 NSCLC
# [42] = system: ACHN renal
# [43] = system: SF-268 CNS
# [44] = system: OVCAR-8 ovarian
# [45] = system: OVCAR-5 ovarian
# [46] = system: EKVX NSCLC
# [47] = system: KM12 colon
# [48] = system: T-47D breast
# [49] = system: OVCAR-4 ovarian
# [50] = system: CAKI-1 renal
# [51] = system: UACC-62 melanoma
# [52] = system: UACC-257 melanoma
# [53] = system: A498 renal
# [54] = system: BT-549 breast
# [55] = system: NCI-H522 lung
# [56] = system: NCI-H226 lung
# [57] = system: HCT-15 colon
# [58] = system: U251 CNS
# [59] = system: SF-295 CNS
# [60] = system: MDA-MB-435
# [61] = system: NCI/ADR-RES ovarian
# [62] = system: DMS 114 small cell lung
# [63] = system: M14 melanoma
# [64] = system: HOP-18 NSCLC
# [65] = system: HL-60(TB) leukemia
# [66] = system: COLO 205 colon
# [67] = system: XF 498 CNS
smiles,measurement,setting,value
NC(=O)N=C(N(Cc1ccccc1)Cc1ccccc1)N(Cc1ccccc1)Cc1ccccc1,TGI,[1],> 100 µM
same,TGI,[2],> 100 µM
same,TGI,[3],> 100 µM
same,TGI,[4],> 100 µM
same,TGI,[5],> 100 µM
same,TGI,[6],81.8 µM
same,TGI,[7],> 100 µM
same,TGI,[8],> 100 µM
same,TGI,[9],> 100 µM
same,TGI,[10],> 100 µM
same,TGI,[11],> 100 µM
same,TGI,[12],> 100 µM
same,TGI,[13],> 100 µM
same,TGI,[14],> 100 µM
same,TGI,[15],> 100 µM
same,TGI,[16],> 100 µM
same,TGI,[17],> 100 µM
same,TGI,[18],> 100 µM
same,TGI,[19],> 100 µM
same,TGI,[20],> 100 µM
same,TGI,[21],> 100 µM
same,TGI,[22],> 100 µM
same,TGI,[23],> 100 µM
same,TGI,[24],> 100 µM
same,TGI,[25],> 100 µM
same,TGI,[26],> 100 µM
same,TGI,[27],> 64.8 µM
same,TGI,[28],> 100 µM
same,TGI,[29],> 100 µM
same,TGI,[30],> 100 µM
same,TGI,[31],> 100 µM
same,TGI,[32],> 100 µM
same,TGI,[33],> 100 µM
same,TGI,[34],> 100 µM
same,TGI,[35],> 100 µM
same,TGI,[36],> 100 µM
same,TGI,[37],> 100 µM
same,TGI,[38],> 100 µM
same,TGI,[39],> 100 µM
same,TGI,[40],> 100 µM
same,TGI,[41],> 65.8 µM
same,TGI,[42],> 100 µM
same,TGI,[43],> 100 µM
same,TGI,[44],> 100 µM
same,TGI,[45],> 100 µM
same,TGI,[46],> 100 µM
same,TGI,[47],> 100 µM
same,TGI,[48],> 100 µM
same,TGI,[49],> 75.6 µM
same,TGI,[50],> 100 µM
same,TGI,[51],> 100 µM
same,TGI,[52],> 100 µM
same,TGI,[53],> 100 µM
same,TGI,[54],> 100 µM
same,TGI,[55],> 100 µM
same,TGI,[56],> 100 µM
same,TGI,[57],> 100 µM
same,TGI,[58],> 63.7 µM
same,TGI,[59],35.1 µM
same,TGI,[60],> 100 µM
same,TGI,[61],> 100 µM
O=C1[C@H]2ON(c3ccccc3)C(c3ccccc3Cl)[C@H]2C(=O)N1c1ccc(Cc2ccc(N3C(=O)[C@@H]4ON(c5ccccc5)C(c5ccccc5Cl)[C@@H]4C3=O)cc2)cc1 (stereo not given in full),TGI,[1],> 100 µM
same,TGI,[62],> 100 µM
same,TGI,[2],> 100 µM
same,TGI,[4],> 100 µM
same,TGI,[63],73.5 µM
same,TGI,[5],> 100 µM
same,TGI,[6],> 100 µM
same,TGI,[7],> 100 µM
same,TGI,[8],> 100 µM
same,TGI,[9],> 100 µM
same,TGI,[10],> 100 µM
same,TGI,[12],> 100 µM
same,TGI,[13],> 100 µM
same,TGI,[15],> 100 µM
same,TGI,[16],> 100 µM
same,TGI,[17],> 100 µM
same,TGI,[18],> 100 µM
same,TGI,[19],> 100 µM
same,TGI,[21],> 100 µM
same,TGI,[23],> 100 µM
same,TGI,[24],> 100 µM
same,TGI,[25],> 100 µM
same,TGI,[26],> 100 µM
same,TGI,[27],> 100 µM
same,TGI,[28],> 100 µM
same,TGI,[30],> 100 µM
same,TGI,[64],> 100 µM
same,TGI,[31],> 100 µM
same,TGI,[32],> 100 µM
same,TGI,[33],> 100 µM
same,TGI,[34],> 100 µM
same,TGI,[35],> 100 µM
same,TGI,[36],> 100 µM
same,TGI,[37],> 100 µM
same,TGI,[65],> 100 µM
same,TGI,[38],> 100 µM
same,TGI,[39],> 100 µM
same,TGI,[40],> 100 µM
same,TGI,[41],> 100 µM
same,TGI,[42],> 100 µM
same,TGI,[43],> 100 µM
same,TGI,[44],> 100 µM
same,TGI,[45],> 100 µM
same,TGI,[46],> 100 µM
same,TGI,[47],> 100 µM
same,TGI,[49],> 100 µM
same,TGI,[50],> 100 µM
same,TGI,[51],> 100 µM
same,TGI,[52],> 100 µM
same,TGI,[53],> 100 µM
same,TGI,[55],> 100 µM
same,TGI,[56],> 100 µM
same,TGI,[57],> 100 µM
same,TGI,[58],> 100 µM
same,TGI,[66],> 100 µM
same,TGI,[59],> 100 µM
Cn1cnc(CCc2ccccc2)n1,TGI,[62],> 100 µM
same,TGI,[2],> 100 µM
same,TGI,[4],> 100 µM
same,TGI,[63],> 100 µM
same,TGI,[5],> 100 µM
same,TGI,[6],> 100 µM
same,TGI,[7],> 100 µM
same,TGI,[8],> 100 µM
same,TGI,[9],> 100 µM
same,TGI,[10],> 100 µM
same,TGI,[12],> 100 µM
same,TGI,[13],> 100 µM
same,TGI,[15],> 100 µM
same,TGI,[16],> 100 µM
same,TGI,[17],> 100 µM
same,TGI,[18],> 100 µM
same,TGI,[19],> 100 µM
same,TGI,[21],> 100 µM
same,TGI,[22],> 100 µM
same,TGI,[23],> 100 µM
same,TGI,[24],> 100 µM
same,TGI,[25],> 100 µM
same,TGI,[26],> 100 µM
same,TGI,[27],> 100 µM
same,TGI,[28],> 100 µM
same,TGI,[30],> 100 µM
same,TGI,[64],> 100 µM
same,TGI,[31],> 100 µM
same,TGI,[33],> 100 µM
same,TGI,[34],> 100 µM
same,TGI,[35],> 100 µM
same,TGI,[36],> 100 µM
same,TGI,[37],> 100 µM
same,TGI,[65],> 100 µM
same,TGI,[38],> 100 µM
same,TGI,[39],> 100 µM
same,TGI,[40],> 100 µM
same,TGI,[41],> 100 µM
same,TGI,[42],> 100 µM
same,TGI,[43],> 100 µM
same,TGI,[44],> 100 µM
same,TGI,[45],> 100 µM
same,TGI,[47],> 100 µM
same,TGI,[49],> 100 µM
same,TGI,[50],> 100 µM
same,TGI,[51],> 100 µM
same,TGI,[52],> 100 µM
same,TGI,[53],> 100 µM
same,TGI,[55],> 100 µM
same,TGI,[56],> 100 µM
same,TGI,[57],> 100 µM
same,TGI,[58],> 100 µM
same,TGI,[66],> 100 µM
same,TGI,[59],> 100 µM
CCN(CC)CSc1nc2ccccc2s1,TGI,[62],> 100 µM
same,TGI,[2],> 100 µM
same,TGI,[63],> 100 µM
same,TGI,[6],> 100 µM
same,TGI,[7],> 100 µM
same,TGI,[8],> 100 µM
same,TGI,[9],> 100 µM
same,TGI,[10],> 100 µM
same,TGI,[13],> 100 µM
same,TGI,[15],> 100 µM
same,TGI,[16],> 100 µM
same,TGI,[17],> 100 µM
same,TGI,[67],> 100 µM
same,TGI,[19],> 100 µM
same,TGI,[21],> 100 µM
same,TGI,[23],> 100 µM
same,TGI,[24],> 100 µM
same,TGI,[25],> 100 µM
same,TGI,[26],> 100 µM
same,TGI,[27],> 100 µM
same,TGI,[30],> 100 µM
same,TGI,[31],> 100 µM
same,TGI,[32],> 100 µM
same,TGI,[33],> 100 µM
same,TGI,[36],> 100 µM
same,TGI,[65],> 100 µM
same,TGI,[39],> 100 µM
same,TGI,[40],> 100 µM
same,TGI,[44],> 100 µM
same,TGI,[46],> 100 µM
same,TGI,[47],> 100 µM
same,TGI,[49],> 100 µM
same,TGI,[50],> 100 µM
same,TGI,[51],> 100 µM
same,TGI,[52],> 100 µM
same,TGI,[55],> 100 µM
same,TGI,[56],> 100 µM
same,TGI,[57],> 100 µM
same,TGI,[66],> 100 µM
